Source: patent US20170354600A1, “COMPOSITION AND METHOD FOR STABILIZING GSH” (priority 2016, published 2017)
Where two headings read alike, the source gives them in different places.

Legend:
[1] = GSH retention in liquid composition exposed to hydrogen peroxide oxidation (Ellman colorimetric, 405 nm); details: 0.1 mmol GSH, pH 8.0 buffer, 1 ml hydrogen peroxide 0.5% w/v
Method: 0.1 mmol of reduced glutathione (Kohjin Co. Ltd) was premixed with 5 g of liquid sorbitol (96%, Roquette Corp) using magnetic stirring for 10 minutes. Then, as described in Table 5, incremental concentrations of food grade antioxidants where added followed by additional 10 minutes of stirring. The mixture was then added to 100 g of 0.1M disodium phosphate/0.001 mM EDTA pH 8.0 buffer solution, then 1 ml of hydrogen peroxide solution 0.5% w/v was added to each test. A control test with no antioxidant was also performed.
After 1 hour of exposure to oxidation, 5 grams of the treated solution was added to 30 ml of 0.1M disodium phosphate/0.001 mM EDTA pH 8.5 buffer solution. This solution was then extracted 3 times with chloroform using a separation funnel. The remaining aqueous phase was added to a 100 ml volumetric flask and the volume was completed using 0.1M disodium phosphate/0.001 mM EDTA pH 8.0 buffer solution. The GSH present in this solution was quantify by colorimetric method at 405 nm using Elman's reagent, 5,5′-Dithio-bis-(2-nitrobenzoic acid), using L-glutathione 99%, provided by Sigma Aldrich, as standard. The retaining percentage for each solid composition was calculated and expressed as percentage values in Table 6. […]

[2] = GSH retention in solid composition exposed to hydrogen peroxide oxidation (Ellman colorimetric, 405 nm); details: 0.1 mmol GSH, 1 ml hydrogen peroxide 1.0% w/v
Method: 0.1 mmol of reduced glutathione (96%) was premixed with 5 g of liquid sorbitol (96%, Roquette Corp) using magnetic stirring for 15 minutes at room temperature. Then, as described in Table 2, an amount of each food grade antioxidant were separately added for each test, followed by an additional 10 minutes of stirring. The mixture was then homogeneously dispersed in 100 g of powder sorbitol using mechanical high shear blending for 3 minutes. 1 ml of hydrogen peroxide solution 1.0% w/v was added to each test and a continue mixing for additional 1 minute. A control test with no antioxidant was also performed.
After 6 hours of exposure to oxidation, 5 g of the treated solid mixture was added to 30 ml of 0.1M disodium phosphate/0.001 mM EDTA pH 8.0 buffer solution. This solution was then extracted 3 times with chloroform using a separation funnel. The remaining aqueous phase was added to 100 ml volumetric flask and the volume was completed using 0.1M disodium phosphate/0.001 mM EDTA pH 8.5 buffer solution. The GSH present in this solution was quantify by colorimetric method at 405 nm using Elman's reagent, 5,5′-Dithio-bis-(2-nitrobenzoic acid), using L-glutathione 99%, provided by Sigma Aldrich, as standard. The retaining percentage for each solid composition was calculated and expressed as percentage values in Table 3. […]

[3] = GSH, cited from earlier work

| Compound | Retention percentage after 1 hour of oxidation in liquid composition ([1]; 0.001 mmol antioxidant) | Retention percentage after 1 hour of oxidation in liquid composition ([1]; 0.01 mmol antioxidant) | Retention percentage after 1 hour of oxidation in liquid composition ([1]; 1 mmol antioxidant) | Retention percentage after 1 hour of oxidation in liquid composition ([1]; 10 mmol antioxidant) | Retention percentage after 6 hours of oxidation in solid compositions ([2]; 0.001 mmol antioxidant) | Retention percentage after 6 hours of oxidation in solid compositions ([2]; 0.01 mmol antioxidant) | Retention percentage after 6 hours of oxidation in solid compositions ([2]; 10 mmol antioxidant) | Retention percentage after 6 hours of oxidation in solid compositions ([2]; 18.18 mmol antioxidant) | Half life ([3]; pH 6.5, 20° C., 0.1M K2HPO4/KH2PO4 Buffer) | Half life ([3]; pH 7.5, 20° C., 0.1M K2HPO4/KH2PO4 Buffer) | Half life ([3]; pH 8.5, 0° C., 0.1M K2HPO4/KH2PO4 Buffer) | Half life ([3]; pH 8.5, 20° C., 0.1M K2HPO4/KH2PO4 Buffer + 0.1 nM Cu + 2) | Half life ([3]; pH 8.5, 20° C., 0.1M K2HPO4/KH2PO4 Buffer + 1.0 nM EDTA) | Half life ([3]; pH 8.5, 20° C., 0.1M K2HPO4/KH2PO4 Buffer) | Half life ([3]; pH 8.5, 40° C., 0.1M K2HPO4/KH2PO4 Buffer) |
| --- | --- | --- | --- | --- | --- | --- | --- | --- | --- | --- | --- | --- | --- | --- | --- |
| CCCCCCCCCCCCCCCC(=O)OC[C@H](O)[C@H]1OC(=O)C(O)=C1O [Ascorbyl palmitate] | 0.00% | 13.38% | 18.83% | 36.36% | 18.18% | 25.97% | 46.10% | 36.88% |  |  |  |  |  |  |  |
| O=C1O[C@H]([C@@H](O)CO)C(O)=C1O [Ascorbic acid, L-Ascorbic acid] | 0.00% | 0.00% | 17.92% | 32.08% | 0.00% | 14.29% | 28.96% | 18.18% |  |  |  |  |  |  |  |
| CC(=O)Oc1c(C)c(C)c2c(c1C)CC[C@@](C)(CCC[C@H](C)CCC[C@H](C)CCCC(C)C)O2 [Vitamin E, DL alpha tocopheryl acetate] | 10.39% | 16.88% | 30.39% | 41.69% | 24.16% | 31.04% | 45.19% | 39.61% |  |  |  |  |  |  |  |
| CC(=O)OC/C=C(C)/C=C/C=C(C)/C=C/C1=C(C)CCCC1(C)C [Vitamin A, Vitamin A acetate] | 14.29% | 21.95% | 33.25% | 49.79% | 28.57% | 33.77% | 51.04% | 46.36% |  |  |  |  |  |  |  |
| N[C@@H](CCC(=O)N[C@@H](CS)C(=O)NCC(=O)O)C(=O)O [GSH, Reduced glutathione] |  |  |  |  |  |  |  |  | 16 min | 9 min | 8 min | 1.2 min | 70 min | 1.3 min | 0.2 min |
